Results on 39 compounds are retold here after ChEMBL document CHEMBL3507680, “University of Dundee, Gates Library screen for HepG2 cell viability”.

The structures appear in SMILES notation.

A short description of the series: Human HepG2 cell viability assay in 384 well format. As to conditions: HepG2 cells, read-out: Inhibition. Also on record: dose 125 nL, time 70.5 hour; concentration not given beside the values. The class given is toxicity, cell-based.
Turning to `Clc1ccc(CN2CCC(C3CCN(Cc4cccnc4)CC3)C2)cc1` (centres undefined), the cytotoxicity at 70.5 h was -2.87%.
In the case of `OCCNc1cc(N2CCC(n3cc(C4CCCC4)nn3)CC2)ncn1` it was -10.7%; in that of `COCC1CN(C(=O)c2ccnnc2)Cc2c1cnn2C` (centres undefined), -1.23%.
Take `CC(C)N(C(=O)CN(C)C1CCc2ccccc21)C(C)C` (centres undefined): the cytotoxicity at 70.5 h was -0.805%.
Then `Cc1noc(C)c1CNC(=O)c1cn(CCC2CCCCN2)nn1` (centres undefined), with -0.767%; and `O=C(Nc1cc(-n2cccc2)ccc1F)N1CCCC1`, with -11.7%; and `CCN1CCN(C[C@@H]2CN(c3ncccc3Cl)C[C@@H]2CO)CC1`, with -3.91%.
As for `O=C(Cn1cccnc1=O)NC(Cc1cccs1)c1ccccn1` (centres undefined), the cytotoxicity at 70.5 h was -13.9%.
For `CC1CN(CC(=O)NCc2cccs2)CCN1c1nccs1` (centres undefined), the cytotoxicity at 70.5 h was -10.4%.
In the case of `CC(C)(C)c1nc(CN2CCCC(Cn3cncn3)C2)cs1` (centres undefined) it was 25.2%.
In the case of `O=C(c1ccc(F)cc1)N1CCC2(CCCN2CC2CC2)CC1` it was -14%; in that of `Cc1nc(CNC(=O)NC2CC(C)(C)OC2(C)C)sc1C` (centres undefined), -9.18%.
With `CCc1cnc(CN(C(C)=O)C2CCN(CCS(C)(=O)=O)C2)o1` (centres undefined), the cytotoxicity at 70.5 h was 32.1%.
In the case of `Cc1ccc(CN2CCC3(CC2)CC(N2CCN(C)CC2)CO3)s1` (centres undefined) it was -9.14%; in that of `O=C(NCCN1CCOCC1)c1cnc(-c2ccccc2F)s1`, -3.87%; in that of `Cc1nc(C(C)C)sc1C(=O)NCC(C)(C)N1CCOCC1`, -8.1%.
Then `O=S(=O)(c1ccc(F)c(F)c1)N1CCCC(c2nccs2)C1` (centres undefined), with 1.6%; and `c1cnn(Cc2nnc(C3CCN(C4CCOCC4)CC3)n2C2CC2)c1`, with -10.6%.
With `Brc1ccc(C2(NCc3noc(C4CC4)n3)CCC2)cc1`, the cytotoxicity at 70.5 h was 2.53%.
In the case of `CNc1cncc(C2CCCN2C(=O)Cn2c(=O)oc3ccccc32)n1` (centres undefined) it was -5.11%; in that of `CNc1nc2c(c(C(=O)N3CCCC3)n1)CN(Cc1cc(C)no1)CC2`, 10.8%; in that of `O=C(Cc1ccsc1)N1CCC(O)(CN2CCc3ccccc3C2)C1` (centres undefined), -5.49%.
Then `Cc1nc(C)n(CC2CCCN2CC(=O)Nc2ccncc2)n1` (centres undefined), with -4.71%; and `O=C1NCC[C@]12CN(Cc1ccncc1)C[C@H]2c1ccccc1`, with -1.85%.
Turning to `CN1CCCN(c2nccc(-c3c[nH]nc3C3CCCCC3)n2)CC1`, the cytotoxicity at 70.5 h is -3.95%.
In the case of `CNC(=O)c1cn[nH]c1C1CCCN1c1nc(C)cc(C)n1` (centres undefined), the cytotoxicity at 70.5 h is -3.88%.
Then `O=C(c1ccc(-n2cccc2)c(F)c1)N1CCCN2CCCC2C1` (centres undefined), with 8.53%.
Then `Cc1nn(C)c2ncnc(N3CCCC(OCc4ccccn4)C3)c12` (centres undefined), with 1.57%; and `c1cc(CNCc2ccnc(N3CCCC3)c2)c2c(c1)OCCO2`, with 5.3%.
Turning to `CSc1nccn1-c1cccc(C(=O)NCc2nnc(C)n2C)c1`, the cytotoxicity at 70.5 h is 6.07%.
In the case of `COc1cnc(N2CC(N3CCOCC3)C2)nc1-c1ccnn1C`, the cytotoxicity at 70.5 h is 6.03%.
Regarding `CCc1nc(C2CCCN2CC(=O)N2CCCc3ccccc32)no1` (centres undefined), the cytotoxicity at 70.5 h was found to be 22%.
Then `CN(C)C(=O)N1CC2(CCN(S(C)(=O)=O)CC2)c2ccccc21`, with -1.58%; and `COC(=O)c1cccc2nc([C@H]3CCN(C4CCN(C)CC4)C3)oc12`, with -2.72%.
Consider `CCc1c(C)nc2n(c1=O)CC(C(=O)Nc1nccs1)CS2` (centres undefined), for which the cytotoxicity at 70.5 h worked out at 33.6%.
In the case of `CCOCCC(=O)NC(c1noc(C)n1)c1ccccc1F` (centres undefined) it was -7.31%.
Then `Cc1cnn(CC2CCCN2Cc2noc(C(C)(C)C)n2)c1` (centres undefined), with -2.54%.
As to `Cc1nnc([C@H]2C[C@H]3CN(C(=O)Cc4ccc(F)cc4)CC[C@@H]3O2)o1`, the cytotoxicity at 70.5 h is -6.08%.
As to `O=C(NCc1ccco1)[C@@]12CCO[C@@H]1CCN(C1CCC1)C2`, the cytotoxicity at 70.5 h came out at 2.1%.
